# Assay results: patent US20060282132A1, “Photodynamic therapy equipment, method for controlling photodynamic therapy equipment and method of photodynamic method” (KEIO UNIVERSITY, priority 2003, published 2006)
# Tests used:
# [1] = test system: mouse derived macrophage like cell J774.1
# Protocol: With regard to arteriosclerotic athero model, mouse derived macrophage like cell J774.1 was used. PDT was performed after contacting with the second generation photosensitive substance ATX-S10 (ATX-S10 Na(II) (K.K. Hikari Chemical Lab.)) with good excretion, concentration of 6 μg/ml for 24 hours.
# Irradiation of the light was performed with the light source: excimer dye laser (EDL-1, Hamamatsu Photonix Co., wavelength 670 nm, pulse width 10 ns); pulse energy density 1.2 to 9.5 mJ/cm^2 (corresponding to peak intensity […]); and repetition frequency 5 to 80 Hz. PDT effect as evaluated by a rate of cell death using MTT after performing for 24 hours.
# Measurement was performed in concentration of administered photosensitive substance at 25 μg/ml and 50 μg/ml.
# [2] = concentration 6 μg/ml
structure (smiles),measurement,setting,value
"C=Cc1c(C)c2cc3nc(cc4[nH]c(cc5nc(cc1[nH]2)C(C)=C5CCC(=O)NC(CC(=O)[O-])C(=O)[O-])c(CCC(=O)NC(CC(=O)[O-])C(=O)[O-])c4C)C(C)(O)/C3=C\C=NO.[Na+].[Na+].[Na+].[Na+] (stereo not shown) [ATX-S10, Iminochlorin aspartic acid derivative]",PDT effect (rate of cell death),"[1]; 6 μg/ml for 24 hours, excimer dye laser 670 nm, pulse width 10 ns, high pulse energy density (high peak intensity), repetition frequency 5 to 80 Hz, MTT after 24 hours",PDT effect almost disappeared
same,rate of cell death at maximum,"[1]; 6 μg/ml for 24 hours, excimer dye laser 670 nm, pulse width 10 ns, low pulse energy density (low peak intensity), repetition frequency 5 to 80 Hz, MTT after 24 hours",≤ 70%
same,rate of cell death with changing irradiation energy density,"[1]; 25 μg/ml and 50 μg/ml, same irradiation energy density","rate of cell death is different, if the concentration of photosensitive substance is different"
same,changes of absorption (bleaching) with changing irradiation energy density,[2],depends on total irradiation energy (J/cm^2) and not on peak intensity
